Test results reported in US7375107B2 (priority 2003, dated 2008).

Target: T1, epithelial sodium channels (ENaC), airway epithelial monolayers (Canis lupus familiaris, UniProt A0A8I3MKE6+A0A8I3Q679+Q95165)
T1 sequence (A0A8I3Q679 1-649): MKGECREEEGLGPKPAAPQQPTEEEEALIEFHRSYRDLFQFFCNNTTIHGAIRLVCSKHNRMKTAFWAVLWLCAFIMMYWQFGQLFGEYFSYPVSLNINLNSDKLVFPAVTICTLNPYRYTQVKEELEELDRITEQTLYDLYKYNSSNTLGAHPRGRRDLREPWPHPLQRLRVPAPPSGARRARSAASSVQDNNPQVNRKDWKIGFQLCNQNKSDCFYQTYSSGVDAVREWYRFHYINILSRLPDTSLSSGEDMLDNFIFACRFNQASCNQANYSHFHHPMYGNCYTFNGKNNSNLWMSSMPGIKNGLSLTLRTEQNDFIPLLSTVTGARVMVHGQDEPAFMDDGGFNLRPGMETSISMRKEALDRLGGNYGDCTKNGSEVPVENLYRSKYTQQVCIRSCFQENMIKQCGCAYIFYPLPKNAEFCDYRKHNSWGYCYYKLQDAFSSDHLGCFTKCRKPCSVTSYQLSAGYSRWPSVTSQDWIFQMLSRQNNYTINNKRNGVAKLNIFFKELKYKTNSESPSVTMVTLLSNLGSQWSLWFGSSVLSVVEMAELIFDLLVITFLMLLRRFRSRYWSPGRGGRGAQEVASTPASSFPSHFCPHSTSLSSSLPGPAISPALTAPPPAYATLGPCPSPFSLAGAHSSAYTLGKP
T1 sequence (Q95165 1-641): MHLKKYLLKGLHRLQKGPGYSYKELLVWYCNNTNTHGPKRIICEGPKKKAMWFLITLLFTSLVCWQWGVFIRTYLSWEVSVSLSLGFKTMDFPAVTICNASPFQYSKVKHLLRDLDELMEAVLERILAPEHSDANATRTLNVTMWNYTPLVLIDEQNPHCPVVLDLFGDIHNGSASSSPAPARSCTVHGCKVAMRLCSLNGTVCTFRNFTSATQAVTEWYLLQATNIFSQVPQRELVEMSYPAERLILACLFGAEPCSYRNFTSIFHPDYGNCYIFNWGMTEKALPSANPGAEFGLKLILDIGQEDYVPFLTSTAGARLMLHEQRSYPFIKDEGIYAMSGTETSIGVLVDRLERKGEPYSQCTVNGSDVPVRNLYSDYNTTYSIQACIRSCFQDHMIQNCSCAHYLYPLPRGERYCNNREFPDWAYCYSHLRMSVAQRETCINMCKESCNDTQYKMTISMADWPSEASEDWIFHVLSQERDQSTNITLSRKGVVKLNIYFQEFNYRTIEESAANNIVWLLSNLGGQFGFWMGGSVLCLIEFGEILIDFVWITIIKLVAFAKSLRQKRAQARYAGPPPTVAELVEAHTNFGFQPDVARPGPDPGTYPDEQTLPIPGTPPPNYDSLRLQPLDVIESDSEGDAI
T1 sequence (A0A8I3MKE6 1-646): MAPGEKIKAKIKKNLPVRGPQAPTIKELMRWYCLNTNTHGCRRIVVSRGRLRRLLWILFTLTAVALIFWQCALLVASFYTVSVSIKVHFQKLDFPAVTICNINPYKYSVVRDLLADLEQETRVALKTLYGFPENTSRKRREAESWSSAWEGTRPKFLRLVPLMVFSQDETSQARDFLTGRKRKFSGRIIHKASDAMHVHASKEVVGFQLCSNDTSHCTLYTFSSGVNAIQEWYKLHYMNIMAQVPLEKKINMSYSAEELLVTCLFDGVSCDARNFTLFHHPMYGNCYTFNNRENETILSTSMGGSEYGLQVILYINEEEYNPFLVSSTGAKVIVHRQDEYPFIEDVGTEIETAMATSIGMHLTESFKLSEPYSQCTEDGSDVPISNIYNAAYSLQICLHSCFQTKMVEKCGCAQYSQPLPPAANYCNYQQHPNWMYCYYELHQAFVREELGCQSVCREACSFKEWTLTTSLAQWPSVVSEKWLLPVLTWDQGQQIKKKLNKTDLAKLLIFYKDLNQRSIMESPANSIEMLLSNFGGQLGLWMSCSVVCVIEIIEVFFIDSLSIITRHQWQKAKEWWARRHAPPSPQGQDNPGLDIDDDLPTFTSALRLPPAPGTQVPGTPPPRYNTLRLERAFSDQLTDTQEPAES
Test: Sodium channel blocking activity: lumenal drug inhibition of airway epithelial sodium currents (short circuit current, ISC) in Ussing chambers
Assay type: cell-based, canine
Details: relative potency for PSA 4022 = 100 using EC50 from PSA 4022 in same run
Procedure: One assay used to assess mechanism of action and/or potency of the compounds of the present invention involves the determination of lumenal drug inhibition of airway epithelial sodium currents measured under short circuit current (ISC) using airway epithelial monolayers mounted in Ussing chambers. Cells obtained from freshly excised human, dog, sheep or rodent airways are seeded onto porous 0.4 micron Snapwell™ Inserts (CoStar), cultured at air-liquid interface (ALI) conditions in hormonally defined media, and assayed for sodium transport activity (ISC) while bathed in Krebs Bicarbonate Ringer (KBR) in Using chambers. All test drug additions are to the lumenal bath with half-log dose addition protocols (from 1×10^−11 M to 3×10^−5 M), and the cumulative change in ISC (inhibition) recorded. All drugs are prepared in dimethyl sulfoxide as stock solutions at a concentration of 1×10^−2 M and stored at −20° C. Eight preparations are typically run in parallel; two preparations per run incorporate amiloride and/or benzamil as positive controls. After the maximal concentration (5×10^−5 M) is administered, the lumenal bath is exchanged three times with fresh drug-free KBR solution, and the resultant ISC measured after each wash for approximately 5 minutes in duration. Reversibility is defined as the percent return to the baseline value for sodium current after the third wash. All data from the voltage clamps are collected via a computer interface and analyzed off-line.
Dose-effect relationships for all compounds are considered and analyzed by the Prism 3.0 program. IC50 values, maximal effective concentrations, and reversibility are calculated and compared to amiloride and benzamil as positive controls.
Treatment Protocol (Assessment of Activity at t-4 hours): The following variation of the standard protocol was used to assess the durability of response following a single exposure to vehicle control (distilled water), positive control compounds (amiloride or benzamil), or investigational agents. At time zero, vehicle control (distilled water), positive control (amiloride), or investigational compounds were aerosolized from a 4 ml volume using a Pari LC JetPlus nebulizer to free-breathing animals. The nebulizer was driven by compressed air with a flow of 8 liters per minute. The time to deliver the solution was 10 to 12 minutes. Animals were restrained in an upright position in a specialized body harness for 4 hours. At the end of the 4-hour period animals received a single dose of aerosolized ^99mTc-Human serum albumin (3.1 mg/ml; containing approximately 20 mCi) from a Raindrop Nebulizer. Animals were extubated immediately following delivery of the total dose of radio-tracer. A baseline deposition image was obtained immediately after radio-aerosol administration. Serial images of the lung were obtained at 15-minute intervals during the first 2 hours after administration of the radio-tracer (representing hours 4 through 6 after drug administration) and hourly for the next 2 hours after dosing for a total observation period of 4 hours. A washout period of at least 7 days separated dosing sessions with different experimental agents. Statistics: Data were analyzed using SYSTAT for Windows, version 5. Data were analyzed using a two-way repeated ANOVA (to assess overall effects), followed by a paried t-test to identify differences between specific pairs. Significance was accepted when P was less than or equal to 0.05. […] The compounds can be further tested for potency in canine bronchial epithelia using the in vitro assay described above. The results for the compounds of the present invention are reported as fold-enhancement values relative to amiloride.
Sodium Channel Blocking Activity of Selected Alaphatic Pyrazinoylguanidines.

For N=C(NCCCCCCCN)NC(=O)c1nc(Cl)c(N)nc1N [compound 18705], which “Fold Amiloride** (PSA 4022 = 100)” value is on record?
Its value is 8 ± 2 (n = 4).

For N=C(NCCCCCCN)NC(=O)c1nc(Cl)c(N)nc1N [compound 18706], which “Fold Amiloride** (PSA 4022 = 100)” value is on record?
Its value is 4 ± 1 (n = 4).

Which “Fold Amiloride** (PSA 4022 = 100)” value does the source give for N=C(N)NCCCCCCCCCNC(=N)NC(=O)c1nc(Cl)c(N)nc1N [compound 19006] here?
Its value is 11 ± 2 (n = 3).

Which “Fold Amiloride** (PSA 4022 = 100)” value does the source give for N=C(N)NCCCCCCCNC(=N)NC(=O)c1nc(Cl)c(N)nc1N [compound 19155] here?
The value was 8 ± 7 (n = 3).

With CC(C)(C)OC(=O)NCCCCCCCCNC(=N)NC(=O)c1nc(Cl)c(N)nc1N [compound 19156] as the compound, how does the “Fold Amiloride** (PSA 4022 = 100)” value read?
Its value is 18 ± 2 (n = 2).

For CC(C)(C)OC(=O)NCCCOCCCNC(=N)NC(=O)c1nc(Cl)c(N)nc1N [compound 19333], which “Fold Amiloride** (PSA 4022 = 100)” value is on record?
Its value is 7 ± 2 (n = 4).

For N=C(NCCCCCCCCCN)NC(=O)c1nc(Cl)c(N)nc1N [compound 19335], which “Fold Amiloride** (PSA 4022 = 100)” value is on record?
The value was 19 ± 7 (n = 4).

Which “Fold Amiloride** (PSA 4022 = 100)” value does the source give for N=C(NCCCCCCCCN)NC(=O)c1nc(Cl)c(N)nc1N [compound 19336] here?
The value was 12 ± 3 (n = 3).

With CC(C)(C)OC(=O)NCCCCCCCCCNC(=N)NC(=O)c1nc(Cl)c(N)nc1N [compound 19484] as the compound, how does the “Fold Amiloride** (PSA 4022 = 100)” value read?
The value was 12 (n = 1).

Which “Fold Amiloride** (PSA 4022 = 100)” value does the source give for N=C(NCCCCCCCCCCN)NC(=O)c1nc(Cl)c(N)nc1N [compound 19487] here?
Its value is 37 ± 1 (n = 4).

Which “Fold Amiloride** (PSA 4022 = 100)” value does the source give for N=C(N)NCCCCCCCCNC(=N)NC(=O)c1nc(Cl)c(N)nc1N [compound 19604] here?
The value was 63 ± 61 (n = 4).

With N=C(N)NCCCCCCCCCCNC(=N)NC(=O)c1nc(Cl)c(N)nc1N [compound 23608] as the compound, how does the “Fold Amiloride** (PSA 4022 = 100)” value read?
The value was 41 ± 29 (n = 2).

For N=C(NCCCCCCCCCCCCN)NC(=O)c1nc(Cl)c(N)nc1N [compound 23609], which “Fold Amiloride** (PSA 4022 = 100)” value is on record?
Its value is 66 ± 36 (n = 4).

Which “Fold Amiloride** (PSA 4022 = 100)” value does the source give for N=C(NCCCCCCCCCCCN)NC(=O)c1nc(Cl)c(N)nc1N [compound 23682] here?
Its value is 51 ± 15 (n = 3).

For N=C(N)NCCCCCCCCCCCCNC(=N)NC(=O)c1nc(Cl)c(N)nc1N [compound 23683], which “Fold Amiloride** (PSA 4022 = 100)” value is on record?
Its value is 68 ± 48 (n = 6).

With CC(C)(C)OC(=O)NCCCCCCCCCCCCNC(=N)NC(=O)c1nc(Cl)c(N)nc1N [compound 23776] as the compound, how does the “Fold Amiloride** (PSA 4022 = 100)” value read?
Its value is 7 (n = 1).

Which “Fold Amiloride** (PSA 4022 = 100)” value does the source give for N=C(N)NCCCCCCCCCCCNC(=N)NC(=O)c1nc(Cl)c(N)nc1N [compound 23991] here?
Its value is 20 ± 12 (n = 4).

Same assay, conditions: sodium channel blocking activity; short circuit current in airway epithelial monolayers

With N=C(NCCCCCCCCCN)NC(=O)c1nc(Cl)c(N)nc1N [compound 19335] as the compound, how does the EC50 read?
The EC50 was 36 ± 7 nM.

Test system: not given
Test: not given
Details: not given

With CC(C)(C)OC(=O)N=C(NCCCOCCCNC(=N)NC(=O)c1nc(Cl)c(N)nc1N)NC(=O)OC(C)(C)C as the compound, how does the melting point read?
The melting point was 89 to 93 °C.
